This is an account of results in US11707527B2, “Nanoscale drug carrier capable of passing through blood-brain barrier” (KUNSHAN XINYUNDA BIOTECH CO., LTD., priority 2017, dated 2023).

This assay has as its system glioma model mice. As to the kind of experiment: Therapy of glioma-bearing mice, survival. As to conditions: doxorubicin 1 mg/Kg at 9d, 12d and 15d after tumor cell inoculation.

Method: An animal therapy experiment was conducted by the inventor to glioma-bearing mice (same mice as in Example 4). In the experiment, glioma model mice (same mice as in Example 4) were divided into two groups, 5 mice for each group. And then glioma model mice were treated with doxorubicin (1 mg/Kg) respectively after tumor cell inoculation for 9d, 12d and 15d.

`COc1cccc2c1C(=O)c1c(O)c3c(c(O)c1C2=O)C[C@@](O)(C(=O)CO)C[C@@H]3O[C@H]1C[C@H](N)[C@H](O)[C@H](C)O1` [Free-Dox, doxorubicin]: the “Mean survival time / survival period” value came to 15 days.
